Drawing on patent US12410160B2 (Gilead Sciences, Inc., priority 2021, dated 2025), this text covers EC50 and IC50 for 22 molecules.

Assay [1] deals with KHK-C expressed in NRK-52E cells (Homo sapiens (Human), UniProt P50053). The assay is described as follows: KHK-C Cell-based Assay (EC50), NRK CTG, fructose-mediated ATP-depletion.
Description: Compounds were tested in a high-throughput 384-well assay format for their ability to attenuate fructose-mediated ATP-depletion in Normal Rat Kidney epithelial cells (NRK-52E) using the Cell-Titer Glo (CTG) assay, which measures cellular ATP levels based on luminescence signal by using the luciferase-luciferin system. Compounds were serially diluted (1:3) in DMSO.
The plates were incubated at 37° C., 5% CO2 for one day. Cells were then transduced on day 2 with 200 MOI of Adenovirus (VQAd KHKC C-(K)-DYK ViraQuest Inc.) using the same medium and method as day-1 to induce KHK-C expression in the cells. Cells were incubated at 37° C., 5% CO2 for one day. On day-3, the medium was changed to DMEM medium (Corning, Catalog #10-014-CM) with 0.5% FBS and Penicillin-Streptomycin after washing the cells twice with sterile PBS on the BioTEK EL406 washer and dispenser. Test compounds were then diluted 200-fold into the assay plates using the BioMek FX and were incubated for 1 hour at 37° C., 5% CO2. 25 mM (final concentration) of fructose was then dispensed into the plates using the BioTEK EL406 dispenser and the plates were incubated at 37° C., 5% CO2 for 48 hours before addition of CTG reagent and measurement of luminescence signal.
In assay [2] the target is human KHK-C (Homo sapiens (Human), UniProt P50053). The assay is described as follows: KHK Biochemical Assay (IC50), ADP-Glo, KHK-C. The conditions noted are these: average of at least two separate assays. The method, boiled down:
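Luminescent ADP-Glo read-out of ADP made by His-tagged KHK (BL21 (DE3) expression, Ni-NTA). Enzyme and compound sat together 30 min before ATP/fructose addition, then reacted 4 h at RT in Hepes pH 7.4 buffer with KCl, MgCl2, Triton-X. Quench 1 h, detection 1 h.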
On the technique in general: ADP-Glo turns the ADP formed in a reaction into a luminescent signal.

Bounds are passed on as bounds.

Sequence of human KHK-C (P50053 whole entry): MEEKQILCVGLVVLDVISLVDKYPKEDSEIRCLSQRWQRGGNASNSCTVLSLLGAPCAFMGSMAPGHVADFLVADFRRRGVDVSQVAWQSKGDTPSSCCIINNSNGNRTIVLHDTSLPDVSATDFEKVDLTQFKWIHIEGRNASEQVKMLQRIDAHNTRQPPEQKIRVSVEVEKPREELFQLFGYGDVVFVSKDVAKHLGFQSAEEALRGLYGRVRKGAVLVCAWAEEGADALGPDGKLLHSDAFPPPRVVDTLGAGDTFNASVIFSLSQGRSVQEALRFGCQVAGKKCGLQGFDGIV
Sequence of KHK-C expressed in NRK-52E cells (P50053 whole entry): as above

In assay [1], `Cc1cc(-c2nc(N3C[C@@H](O)[C@@H]3C)nc3c2CCC3(F)F)ccc1C1(N)COC1` [Example 505, (2S,3R)-1-(4-(4-(3-aminooxetan-3-yl)-3-methylphenyl)-7,7-difluoro-6,7-dihydro-5H-cyclopenta[d]pyrimidin-2-yl)-2-methylazetidin-3-ol] registered a 50% effective concentration (EC50) of 11.9 nM. Further, in assay [2], inhibition was half-maximal at 2.4 nM (IC50).
For `C[C@H]1[C@H](O)CN1c1nc(-c2ccc(C3(N)COC3)nc2)c2c(n1)C(F)(F)CC2` [Example 506, (2S,3R)-1-(4-(6-(3-aminooxetan-3-yl)pyridin-3-yl)-7,7-difluoro-6,7-dihydro-5H-cyclopenta[d]pyrimidin-2-yl)-2-methylazetidin-3-ol], in that order: > 5000 nM and > 5000 nM.
The like results for `C[C@H]1[C@H](O)CN1c1nc(-c2ccc3c(c2)C(=O)N(C)CC3)c2c(n1)C(F)(F)CC2` [Example 600, 7-(7,7-difluoro-2-((2S,3R)-3-hydroxy-2-methylazetidin-1-yl)-6,7-dihydro-5H-cyclopenta[d]pyrimidin-4-yl)-2-methyl-3,4-dihydroisoquinolin-1(2H)-one] were, in that order, 125 nM and 13.6 nM.
The like results for `C[C@H]1[C@H](O)CN1c1nc2c(c(-c3ccc4c(c3)S(=O)(=O)CNC4=O)n1)CCC2` [Example 601, 7-(2-((2S,3R)-3-hydroxy-2-methylazetidin-1-yl)-6,7-dihydro-5H-cyclopenta[d]pyrimidin-4-yl)-2,3-dihydro-4H-benzo[e][1,3]thiazin-4-one 1,1-dioxide] were, in that order, > 5000 nM and 95.1 nM.
On to `C[C@H]1CCN1c1nc2c(c(-c3ccc4c(c3)CN(S(=O)(=O)CCO)CC4)n1)CCC2` [Example 605], for which the concentration giving a half-maximal response (EC50) in assay [1] was found to be 150 nM. The IC50 in assay [2] is 96.8 nM.
The like results for `C[C@H]1[C@H](O)CN1c1nc2c(c(-c3cccc(CNS(=O)(=O)C4CC4)c3)n1)CCC2` [Example 610] were, in that order, 610 nM and 80.7 nM.
In turn, `C[C@H]1[C@H](O)CN1c1nc(-c2ccc3c(c2)CN(S(C)(=O)=O)CC3)c2c(n1)C(F)(F)CC2` [Example 611, (2S,3R)-1-(7,7-difluoro-4-(2-(methylsulfonyl)-1,2,3,4-tetrahydroisoquinolin-7-yl)-6,7-dihydro-5H-cyclopenta[d]pyrimidin-2-yl)-2-methylazetidin-3-ol] returned an EC50 in assay [1] of 92 nM. The same molecule returned an IC50 in assay [2] of 32 nM.
For `CN1C(=O)N[C@]2(CCc3cc(-c4nc(N5CC[C@@H]5CF)nc5c4CCC5(F)F)ccc32)C1=O` [Example 676, (5S)-5′-[7,7-difluoro-2-[(2R)-2-(fluoromethyl)azetidin-1-yl]-5,6-dihydroeyelopenta[d]pyrimidin-4-yl]-3-methyl-spiro[imidazolidine-5,1′-indane]-2,4-dione], in assay [1], the concentration giving a half-maximal response (EC50) stood at 1.2 nM. The molecule also had a concentration for half-maximal inhibition (IC50) in assay [2] of 0.2 nM.
For `CCN1C(=O)N[C@]2(CCc3cc(-c4nc(N5C[C@@H](O)[C@@H]5C)nc5c4CCC5(F)F)ccc32)C1=O` [Example 685, (58)-5′-[7,7-difluoro-2-[(2S,3R)-3-hydroxy-2-methyl-azetidin-1-yl]-5,6-dihydrocyclopenta[d]pyrimidin-4-yl]-3-ethyl-spiro[imidazolidine-5,1′-indane]-2,4-dione], in that order: 2.1 nM and 0.2 nM.
The like results for `C[C@H]1CCN1c1nc2c(c(-c3cn(C4COC4)nn3)n1)CCC2` [Example 704, 2-[(2S)-2-methylazetidin-1-yl]-4-[1-(oxetan-3-yl)triazol-4-yl]-6,7-dihydro-5H-cyclopenta[d]pyrimidine] were, in that order, 1330 nM and 254 nM.
For `N#CC1CCN1c1nc(-c2ccc(C(N)=O)cc2)c2c(n1)C(F)(F)CC2` (centres unmarked) [Example 706, 4-(2-(2-cyanoazetidin-1-yl)-7,7-difluoro-6,7-dihydro-5H-cyclopenta[d]pyrimidin-4-yl)benzamide], in that order: 366 nM and 67.2 nM.
The molecule `N#C[C@H]1CCN1c1nc(-c2ccc(C(N)=O)cc2)c2c(n1)C(F)(F)CC2` [Example 707, (R)-4-(2-(2-cyanoazetidin-1-yl)-7,7-difluoro-6,7-dihydro-5H-cyclopenta[d]pyrimidin-4-yl)benzamide] registered an EC50 in assay [1] of 330 nM. Besides, the IC50 in assay [2] was determined as 43.4 nM.
As for `N#CC1CN(c2nc(-c3ccc(C(N)=O)cc3)c3c(n2)C(F)(F)CC3)C1` [Example 708, 4-(2-(3-cyanoazetidin-1-yl)-7,7-difluoro-6,7-dihydro-5H-cyclopenta[d]pyrimidin-4-yl)benzamide], in assay [1], the EC50 was > 5000 nM. Also, the 50% inhibitory concentration (IC50) in assay [2] is > 5000 nM.
With `CS(=O)(=O)c1cccc(-c2nc(N3CCC[C@H]3C#N)nc3c2CCC3)c1` [Example 712, (S)-1-(4-(3-(methylsulfonyl)phenyl)-6,7-dihydro-5H-cyclopenta[d]pyrimidin-2-yl)pyrrolidine-2-carbonitrile], the EC50 in assay [1] was > 5000 nM. The IC50 in assay [2] is > 5000 nM.
Take `CS(=O)(=O)c1cccc(-c2nc(N3CCC[C@@H]3C#N)nc3c2CCC3)c1` [Example 713, (R)-1-(4-(3-(methylsulfonyl)phenyl)-6,7-dihydro-5H-cyclopenta[d]pyrimidin-2-yl)pyrrolidine-2-carbonitrile]: in assay [1], the EC50 was 4900 nM. In assay [2], this molecule had an IC50 of 2340 nM.
Consider `CC1(C#N)CCN1c1nc2c(c(-c3cccc(S(C)(=O)=O)c3)n1)CCC2` (centres unmarked) [Example 714, 2-methyl-1-(4-(3-(methylsulfonyl)phenyl)-6,7-dihydro-5H-cyclopenta[d]pyrimidin-2-yl)azetidine-2-carbonitrile], for which, in assay [1], the EC50 is > 5000 nM. For the same molecule, in assay [2], the IC50 was > 5000 nM.
The molecule `C[C@H]1CCN1c1nc2c(c(-c3ccc4nc(N)oc4c3)n1)CCC2` [Example 728, (S)-6-(2-(2-methylazetidin-1-yl)-6,7-dihydro-5H-cyclopenta[d]pyrimidin-4-yl)benzo[d]oxazol-2-amine] came in with an EC50 in assay [1] of 52.1 nM. In assay [2], the IC50 turned out to be 22.2 nM.
For `NC(=O)c1ccc(-c2nc(N3CCC34COC4)nc3c2CCC3)cc1` [Example 730, 4-(2-(6-oxa-1-azaspiro[3.3]heptan-1-yl)-6,7-dihydro-5H-cyclopenta[d]pyrimidin-4-yl)benzamide], in that order: 5000 nM and 2390 nM.
For `C[C@H]1CCN1c1nc2c(c(-c3ccc4[nH]c(N)nc4c3)n1)CCC2` [Example 731, (S)-5-(2-(2-methylazetidin-1-yl)-6,7-dihydro-5H-cyclopenta[d]pyrimidin-4-yl)-1H-benzo[d]imidazol-2-amine], in that order: 250 nM and 5.2 nM.
In turn, `C[C@H]1CCN1c1nc2c(c(-c3cnc(N)nc3)n1)CCC2` [Example 732, (S)-5-(2-(2-methylazetidin-1-yl)-6,7-dihydro-5H-cyclopenta[d]pyrimidin-4-yl)pyrimidin-2-amine] showed an EC50 in assay [1] of 361 nM. Moreover, the IC50 in assay [2] came to 87.9 nM.
In assay [1], `C[C@H]1CCN1c1nc2c(c(-c3ccc4sc(N)nc4c3)n1)CCC2` [Example 733, (S)-5-(2-(2-methylazetidin-1-yl)-6,7-dihydro-5H-cyclopenta[d]pyrimidin-4-yl)benzo[d]thiazol-2-amine] yielded a concentration giving a half-maximal response (EC50) of 124 nM. For the same molecule, inhibition in assay [2] was half-maximal at 49.8 nM (IC50).
The like results for `C[C@H]1CCN1c1nc2c(c(-c3ccc4nc(N)sc4c3)n1)CCC2` [Example 734, (S)-6-(2-(2-methylazetidin-1-yl)-6,7-dihydro-5H-cyclopenta[d]pyrimidin-4-yl)benzo[d]thiazol-2-amine] were, in that order, 91.1 nM and 72.3 nM.

By EC50 is commonly meant the concentration giving half of the maximal effect. A high value points to a less potent agent. Usually IC50 stands for the concentration that gives 50% inhibition.
